Experiments:
Assay type in all cases: in vivo
[1] = test system: windgrass (Apera spica-venti); test: Test B postemergence; settings: scale 0 to 100
Excerpt: Seeds of plant species selected from blackgrass (Alopecurus myosuroides), downy bromegrass (Bromus tectorum), green foxtail (Setaria viridis), Italian ryegrass (Lolium multiflorum), wheat (Triticum aestivum), wild oat (Avena fatua), galium (Galium aparine), bermudagrass (Cynodon dactylon), Surinam grass (Brachiaria decumbens), cocklebur (Xanthium strumarium), corn (Zea mays), large crabgrass (Digitaria sanguinalis), woolly cupgrass (Eriochloa villosa), giant foxtail (Setaria faberii), goosegrass (Eleusine indica), johnsongrass (Sorghum halepense), kochia (Kochia scoparia), lambsquarters (Chenopodium album), morningglory (Ipomoea coccinea), yellow nutsedge (Cyperus esculentus), pigweed (Amaranthus retroflexus), ragweed (Ambrosia elatior), soybean (Glycine max), velvetleaf (Abutilon theophrasti), barley (Hordeum vulgare), canarygrass (Phalaris minor), chickweed (Stellaria media), deadnettle (Lamium amplexicaule) and windgrass (Apera spica-venti) were planted in pots containing Redi-Earth® planting medium (Scotts Company, Marysville, Ohio, USA) comprising spaghnum peat moss, vermiculite, wetting agent and starter nutrients and treated postemergence with test compounds formulated in a non-phytotoxic solvent mixture which included a surfactant. Plants ranged in height from 2 to 18 cm (1- to 4-leaf stage).
Treated plants and controls were maintained in a greenhouse for 13 to 15 days, after which time all species were compared to controls and visually evaluated. Plant response ratings, summarized in Table B, are based on a scale of 0 to 100 where 0 is no effect and 100 is complete control. A dash (-) response means no test result.

[2] = test system: corn (Zea mays); test: Test A preemergence; settings: 0 to 100 scale, 0 no effect, 100 complete control, approx. 10 days
Excerpt: (§1) Seeds of barnyardgrass (Echinochloa crus-galli), large crabgrass (Digitaria sanguinalis), giant foxtail (Setaria faberii), morningglory (Ipomoea spp.), pigweed (Amaranthus retroflexus), velvetleaf (Abutilon theophrasti), wheat (Triticum aestivum) and corn (Zea mays) were planted into a blend of loam soil and sand and treated preemergence with a directed soil spray using test chemicals formulated in a non-phytotoxic solvent mixture which included a surfactant. At the same time these species were also treated with postemergence applications of test compounds formulated in the same manner. Plants ranged in height from 2 to 10 cm and were in the one- to two-leaf stage for the postemergence treatments. Treated plants and untreated controls were maintained in a greenhouse for approximately 10 days, after which time all treated plants were compared to untreated controls and visually evaluated for injury. Plant response ratings, summarized in Table A, are based on a 0 to 100 scale where 0 is no effect and 100 is complete control.

[3] = test system: barnyardgrass (Echinochloa crus-galli); test: Test A preemergence; settings: 0 to 100 scale, 0 no effect, 100 complete control, approx. 10 days
Excerpt: as §1

[4] = test system: large crabgrass (Digitaria sanguinalis); test: Test A preemergence; settings: 0 to 100 scale, 0 no effect, 100 complete control, approx. 10 days
Excerpt: as §1

[5] = test system: pigweed (Amaranthus retroflexus); test: Test A preemergence; settings: 0 to 100 scale, 0 no effect, 100 complete control, approx. 10 days
Excerpt: as §1

[6] = test system: velvetleaf (Abutilon theophrasti); test: Test A preemergence; settings: 0 to 100 scale, 0 no effect, 100 complete control, approx. 10 days
Excerpt: as §1

[7] = test system: wheat (Triticum aestivum); test: Test A preemergence; settings: 0 to 100 scale, 0 no effect, 100 complete control, approx. 10 days
Excerpt: as §1

[8] = test system: morningglory (Ipomoea spp.); test: Test A preemergence; settings: 0 to 100 scale, 0 no effect, 100 complete control, approx. 10 days
Excerpt: as §1

[9] = test system: giant foxtail (Setaria faberii); test: Test A preemergence; settings: 0 to 100 scale, 0 no effect, 100 complete control, approx. 10 days
Excerpt: as §1

[10] = test system: barnyardgrass (Echinochloa crus-galli); test: Test B flooded paddy test; settings: Flood
Excerpt: (§2) Plant species in the flooded paddy test consisted of rice (Oryza sativa), umbrella sedge (Cyperus difformis), ducksalad (Heteranthera limosa) and barnyardgrass (Echinochloa crus-galli) grown to the 2-leaf stage for testing. At time of treatment, test pots were flooded to 3 cm above the soil surface, treated by application of test compounds directly to the paddy water, and then maintained at that water depth for the duration of the test. Treated plants and controls were maintained in a greenhouse for 13 to 15 days, after which time all species were compared to controls and visually evaluated. Plant response ratings, summarized in Table B, are based on a scale of 0 to 100 where 0 is no effect and 100 is complete control. A dash (-) response means no test result.

[11] = test system: rice (Oryza sativa); test: Test B flooded paddy test; settings: Flood, scale 0 to 100
Excerpt: as §2

[12] = test system: umbrella sedge (Cyperus difformis); test: Test B flooded paddy test; settings: Flood, scale 0 to 100
Excerpt: as §2

[13] = test system: ducksalad (Heteranthera limosa); test: Test B flooded paddy test; settings: Flood, scale 0 to 100
Excerpt: as §2

[14] = test system: corn (Zea mays); test: Test A postemergence; settings: 0 to 100 scale, 0 no effect, 100 complete control, approx. 10 days
Excerpt: as §1

[15] = test system: barnyardgrass (Echinochloa crus-galli); test: Test A postemergence; settings: 0 to 100 scale, 0 no effect, 100 complete control, approx. 10 days
Excerpt: as §1

[16] = test system: large crabgrass (Digitaria sanguinalis); test: Test A postemergence; settings: 0 to 100 scale, 0 no effect, 100 complete control, approx. 10 days
Excerpt: as §1

[17] = test system: pigweed (Amaranthus retroflexus); test: Test A postemergence; settings: 0 to 100 scale, 0 no effect, 100 complete control, approx. 10 days
Excerpt: as §1

[18] = test system: velvetleaf (Abutilon theophrasti); test: Test A postemergence; settings: 0 to 100 scale, 0 no effect, 100 complete control, approx. 10 days
Excerpt: as §1

[19] = test system: wheat (Triticum aestivum); test: Test A postemergence; settings: 0 to 100 scale, 0 no effect, 100 complete control, approx. 10 days
Excerpt: as §1

[20] = test system: morningglory (Ipomoea spp.); test: Test A postemergence; settings: 0 to 100 scale, 0 no effect, 100 complete control, approx. 10 days
Excerpt: as §1

[21] = test system: giant foxtail (Setaria faberii); test: Test A postemergence; settings: 0 to 100 scale, 0 no effect, 100 complete control, approx. 10 days
Excerpt: as §1

[22] = 250 g ai/ha, scale 0 to 100 (0 no effect, 100 complete control)

## COCCn1c(-c2cc(F)cc(F)c2)c(Cl)nc(C(=O)C2=C(O)CCCC2=O)c1=O [Compound 6, 5-chloro-6-(3,5-difluorophenyl)-3-[(2-hydroxy-6-oxo-1-cyclohexen-1-yl)carbonyl]-1-(2-methoxyethyl)-2(1H)-pyrazinone]
[1]; 31 g ai/ha
  Plant response rating, Windgrass: 60
[1]; 62 g ai/ha
  Plant response rating, Windgrass: 75
[1]; 125 g ai/ha
  Plant response rating, Windgrass: 80
[1]; 250 g ai/ha
  Plant response rating, Windgrass: 80
[2]; 125 g ai/ha
  Plant response rating, Corn: 0
[2]; 500 g ai/ha
  Plant response rating, Corn: 20
[3]; 125 g ai/ha
  Plant response rating, Barnyardgrass: 20
[3]; 500 g ai/ha
  Plant response rating, Barnyardgrass: 90
[4]; 125 g ai/ha
  Plant response rating, Crabgrass, Large: 90
[4]; 500 g ai/ha
  Plant response rating, Crabgrass, Large: 100
[5]; 125 g ai/ha
  Plant response rating, Pigweed: 50
[5]; 500 g ai/ha
  Plant response rating, Pigweed: 90
[6]; 125 g ai/ha
  Plant response rating, Velvetleaf: 50
[6]; 500 g ai/ha
  Plant response rating, Velvetleaf: 100
[7]; 125 g ai/ha
  Plant response rating, Wheat: 0
[7]; 500 g ai/ha
  Plant response rating, Wheat: 20
[8]; 125 g ai/ha
  Plant response rating, Morningglory: 40
[8]; 500 g ai/ha
  Plant response rating, Morningglory: 80
[9]; 125 g ai/ha
  Plant response rating, Foxtail, Giant: 20
[9]; 500 g ai/ha
  Plant response rating, Foxtail, Giant: 70
[10]; 31 g ai/ha, scale 0 to 100
  Plant response rating, Barnyardgrass: 0
[10]; 62 g ai/ha, scale 0 to 100
  Plant response rating, Barnyardgrass: 0
[10]; 125 g ai/ha, scale 0 to 100
  Plant response rating, Barnyardgrass: 0
[10]; [22]
  Plant response rating, Barnyardgrass: 50
[11]; 31 g ai/ha
  Plant response rating, Rice: 0
[11]; 62 g ai/ha
  Plant response rating, Rice: 0
[11]; 125 g ai/ha
  Plant response rating, Rice: 0
[11]; 250 g ai/ha
  Plant response rating, Rice: 15
[12]; 31 g ai/ha
  Plant response rating, Sedge, Umbrella: 60
[12]; 62 g ai/ha
  Plant response rating, Sedge, Umbrella: 70
[12]; 125 g ai/ha
  Plant response rating, Sedge, Umbrella: 85
[12]; 250 g ai/ha
  Plant response rating, Sedge, Umbrella: 90
[13]; 31 g ai/ha
  Plant response rating, Ducksalad: 30
[13]; 62 g ai/ha
  Plant response rating, Ducksalad: 50
[13]; 125 g ai/ha
  Plant response rating, Ducksalad: 70
[13]; 250 g ai/ha
  Plant response rating, Ducksalad: 80
[14]; 125 g ai/ha
  Plant response rating, Corn: 0
[14]; 500 g ai/ha
  Plant response rating, Corn: 40
[15]; 125 g ai/ha
  Plant response rating, Barnyardgrass: 90
[15]; 500 g ai/ha
  Plant response rating, Barnyardgrass: 100
[16]; 125 g ai/ha
  Plant response rating, Crabgrass, Large: 80
[16]; 500 g ai/ha
  Plant response rating, Crabgrass, Large: 100
[17]; 125 g ai/ha
  Plant response rating, Pigweed: 70
[17]; 500 g ai/ha
  Plant response rating, Pigweed: 100
[18]; 125 g ai/ha
  Plant response rating, Velvetleaf: 100
[18]; 500 g ai/ha
  Plant response rating, Velvetleaf: 100
[19]; 125 g ai/ha
  Plant response rating, Wheat: 0
[19]; 500 g ai/ha
  Plant response rating, Wheat: 20
[20]; 125 g ai/ha
  Plant response rating, Morningglory: 90
[20]; 500 g ai/ha
  Plant response rating, Morningglory: 100
[21]; 125 g ai/ha
  Plant response rating, Foxtail, Giant: 50
[21]; 500 g ai/ha
  Plant response rating, Foxtail, Giant: 90

## COCCn1c(-c2cccc(F)c2)c(Cl)nc(C(=O)C2=C(O)CCCC2=O)c1=O [Compound 4, 5-chloro-6-(3-fluorophenyl)-3-[(2-hydroxy-6-oxo-1-cyclohexen-1-yl)carbonyl]-1-(2-methoxyethyl)-2(1H)pyrazinone]
[1]; 31 g ai/ha
  Plant response rating, Windgrass: 5
[1]; 62 g ai/ha
  Plant response rating, Windgrass: 30
[1]; 125 g ai/ha
  Plant response rating, Windgrass: 40
[1]; 250 g ai/ha
  Plant response rating, Windgrass: 65
[2]; 125 g ai/ha
  Plant response rating, Corn: 0
[2]; 500 g ai/ha
  Plant response rating, Corn: 0
[3]; 125 g ai/ha
  Plant response rating, Barnyardgrass: 0
[3]; 500 g ai/ha
  Plant response rating, Barnyardgrass: 70
[4]; 125 g ai/ha
  Plant response rating, Crabgrass, Large: 80
[4]; 500 g ai/ha
  Plant response rating, Crabgrass, Large: 100
[5]; 125 g ai/ha
  Plant response rating, Pigweed: 60
[5]; 500 g ai/ha
  Plant response rating, Pigweed: 100
[6]; 125 g ai/ha
  Plant response rating, Velvetleaf: 40
[6]; 500 g ai/ha
  Plant response rating, Velvetleaf: 90
[7]; 125 g ai/ha
  Plant response rating, Wheat: 0
[7]; 500 g ai/ha
  Plant response rating, Wheat: 0
[8]; 125 g ai/ha
  Plant response rating, Morningglory: 10
[8]; 500 g ai/ha
  Plant response rating, Morningglory: 70
[9]; 125 g ai/ha
  Plant response rating, Foxtail, Giant: 0
[9]; 500 g ai/ha
  Plant response rating, Foxtail, Giant: 30
[10]; 31 g ai/ha, scale 0 to 100
  Plant response rating, Barnyardgrass: 0
[10]; 62 g ai/ha, scale 0 to 100
  Plant response rating, Barnyardgrass: 0
[10]; 125 g ai/ha, scale 0 to 100
  Plant response rating, Barnyardgrass: 0
[10]; [22]
  Plant response rating, Barnyardgrass: 30
[11]; 31 g ai/ha
  Plant response rating, Rice: 0
[11]; 62 g ai/ha
  Plant response rating, Rice: 0
[11]; 125 g ai/ha
  Plant response rating, Rice: 0
[11]; 250 g ai/ha
  Plant response rating, Rice: 30
[12]; 31 g ai/ha
  Plant response rating, Sedge, Umbrella: 75
[12]; 62 g ai/ha
  Plant response rating, Sedge, Umbrella: 75
[12]; 125 g ai/ha
  Plant response rating, Sedge, Umbrella: 75
[12]; 250 g ai/ha
  Plant response rating, Sedge, Umbrella: 80
[13]; 31 g ai/ha
  Plant response rating, Ducksalad: 60
[13]; 62 g ai/ha
  Plant response rating, Ducksalad: 65
[13]; 125 g ai/ha
  Plant response rating, Ducksalad: 75
[13]; 250 g ai/ha
  Plant response rating, Ducksalad: 85
[14]; 125 g ai/ha
  Plant response rating, Corn: 0
[14]; 500 g ai/ha
  Plant response rating, Corn: 40
[15]; 125 g ai/ha
  Plant response rating, Barnyardgrass: 60
[15]; 500 g ai/ha
  Plant response rating, Barnyardgrass: 100
[16]; 125 g ai/ha
  Plant response rating, Crabgrass, Large: 80
[16]; 500 g ai/ha
  Plant response rating, Crabgrass, Large: 100
[17]; 125 g ai/ha
  Plant response rating, Pigweed: 80
[17]; 500 g ai/ha
  Plant response rating, Pigweed: 100
[18]; 125 g ai/ha
  Plant response rating, Velvetleaf: 100
[18]; 500 g ai/ha
  Plant response rating, Velvetleaf: 100
[19]; 125 g ai/ha
  Plant response rating, Wheat: 0
[19]; 500 g ai/ha
  Plant response rating, Wheat: 10
[20]; 125 g ai/ha
  Plant response rating, Morningglory: 90
[20]; 500 g ai/ha
  Plant response rating, Morningglory: 100
[21]; 125 g ai/ha
  Plant response rating, Foxtail, Giant: 30
[21]; 500 g ai/ha
  Plant response rating, Foxtail, Giant: 70

Source: patent US20140024527A1, “HERBICIDAL PYRAZINONES” (E I DU DE NEMOURS AND COMPANY, priority 2011, published 2014)
